Here are results for eight molecules from patent US6869603B2, “Lipoprotein lipase and lipoprotein lipase activators in the treatment of inflammatory conditions” (The Brigham and Women's Hospital, Inc., priority 2001, dated 2005).

“Also recorded” adds a separate entry of the source.

Experiment [1] concerns acyl-coenzymeA-oxidase (ACO). In words: ACO mRNA expression (Northern blot) in HepG2 and primary human macrophages. The experiment is classed as cell-based. How it is done:
Cell Culture: Circulating human monocytes were isolated from healthy volunteers. Differentiated cells (day 7-10) were treated in M199 medium. Peritoneal Mφ were isolated after 5% thioglycollate broth injection into 2-6 month old PPAR-alpha^+/+ and PPAR-alpha^−/− mice. Mφ were cultured in 10% FCS/DMEM 24 h prior to stimulation. HepG2 cells (ATCC, Manassas, Va.) were cultured in 10% FCS/DMEM.
RNA analysis: Total cell RNA was isolated using RNAEasy kit (Qiagen, Valencia, Calif.), separated using a 1% agarose gel, transferred to a Hydrobone membrane (Amersham, Piscataway, N.J.) and Northern blotting was then performed. cDNA probes for LPL and ACO were obtained from ATCC (Manassas, Va.).
LPL lipolysis of TG-LP activates PPARα-regulated genes: We tested if activation of PPAR-alpha by VLDL/LPL induced expression of an established PPAR-alpha target gene, acyl-coenzymeA-oxidase (ACO). […] In vivo, increased ACO expression has been shown in LPL-overexpressing mice.

For experiment [2], the target named is T1, PPAR-alpha-ligand binding domain (LBD) (Homo sapiens, UniProt Q07869).
T1 construct: yeast GAL4 (fusion partner); expressed in transfected cells; host or cells: primary bovine aortic endothelial cells (passage 3-6)
In words: PPAR-alpha-LBD/GAL4 chimeric construct activation (luciferase) in transiently transfected primary bovine aortic endothelial cells. Particulars: for Effect on VLDL/LPL-mediated PPAR-alpha-LBD activation: agent added to VLDL/LPL treatment; for Effect on LPL/LDL− dependent activation of PPAR-alpha: agent added to LDL−/LPL. The experiment is classed as cell-based. How it is done: Transient transfection: Transient transfection was carried out in 24-well plates at 2.3×10^4 primary bovine aortic EC (passage 3-6) per well using Superfect (Qiagen) or Fugene (F. Hoffmann-La Roche). PCMX-β-galactosidase expression vector was used for transfection control. LPL and LPL mutant expression vectors have been previously characterized. Luciferase (Pharmingen, San Diego, Calif.) and P-galactosidase activity were measured according to manufacturer's protocols.
LPL lipolysis of TG-LP generates PPARα ligands: We tested if LPL generates endogenous PPAR-alpha ligands from TG-LP by analyzing activation of chimeric PPAR-alpha-ligand binding domain (LBD) constructs in yeast GAL4 assays. […] Maximal induction was highest for VLDL (21 fold), followed by LDL (14 fold) and HDL (7 fold).
(§1) Transient transfection: Transient transfection was carried out in primary (passage 3 to 6) bovine aortic endothelial cells using the Superfect method (Qiagen, Germany) according to manufacturer's directions. Briefly, cells were plated in 24-well plates at 2.3×10^4 cells per well in DMEM containing 10% fetal calf serum. After 16 h of growth, cells were washed with HBSS and transfected with medium containing Superfect/DNA (ratio 5.5/1) for 4 hours or with FuGene (1.5/1) overnight. Reporter construct pUASx4-TK-luc, chimeric human PPAR-alpha-LBD constructs, PPAR-alpha and LDL receptor (LDLr) overexpression vectors, and the VCAM-1 promoter-luc, have been described previously. A PCMX-B-galactosidase expression vector was used as a transfection control. Cells were maintained overnight in medium, followed by treatment with compounds for 10 hrs in DMEM medium containing 1% FCS (for PPAR-alpha-LBD constructs) and 1% Nutridoma SP (for VCAM-1 promoter studies). Cells lysed in buffer (Pharmingen) were assayed for luciferase activity using a reported assay system (Pharmingen) according to the manufacturer's instructions. β-galactosidase activity was monitored at 540 nm using CRPTG (Boeringer Mannheim) as substrate.

A further experiment concerns VCAM-1 promoter. Description: VCAM-1 promoter-luc transient transfection in bovine endothelial cells (BoEC). The format is cell-based. How it is done: as §1, with “substrate. LDL− augments TNFα-mediated VCAM-1 expression: Surface expression of VCAM-1 was studied in HUVEC activated by TNFα. […]” for “substrate.”
Another experiment relates to VCAM-1. In words: Cell surface ELISA of VCAM-1 expression in HUVEC. Particulars: single stimulus. The experiment is classed as cell-based, human. The procedure: Cell Culture: Human endothelial cells were isolated from umbilical veins and cultured in M199 medium (BioWittaker) containing penicillin/streptomycin, Fungozom, ECGF and 5% fetal calf serum. Cells from passage 3 to 5 were used for experiments. Cells were pretreated with 100 uM fenofibric acid or WY 14643 for 24 h and with LDL species/LPL for 1 h prior to addition of 50 ng/ml TNFα. Subsequent duration of incubations varied. Prior to any procedure cells were washed with ice-cold PBS.
Cell surface ELISA assays were preformed in 96-well plates on confluent monolayers of HUVEC. Treated cells were maintained on ice for 10 minutes, washed with cold PBS and incubated with monoclonal antibodies raised against human VCAM-1. VCAM-1 expression was visualized using alkaline phosphate secondary antibody and measured at […].
LDL− augments TNFα-mediated VCAM-1 expression: Surface expression of VCAM-1 was studied in HUVEC activated by TNFα. Cell stimulation with LDL− lead to approximately a two-fold increase in VCAM-1 expression. In presence of TNFα, VCAM-1 expression was increased 5-fold. […] Here we found a 50% decrease in VCAM-1 expression induced by LDL− and TNFα but pretreated with PPAR-α agonists. […] The VCAM-1 activation was reduced by two-fold in cells ectopically expressing human PPAR-alpha.
Background: An ELISA detects its analyte on a solid surface through an enzyme-linked reagent.

T1 sequence (Q07869 239-466 limits assumed): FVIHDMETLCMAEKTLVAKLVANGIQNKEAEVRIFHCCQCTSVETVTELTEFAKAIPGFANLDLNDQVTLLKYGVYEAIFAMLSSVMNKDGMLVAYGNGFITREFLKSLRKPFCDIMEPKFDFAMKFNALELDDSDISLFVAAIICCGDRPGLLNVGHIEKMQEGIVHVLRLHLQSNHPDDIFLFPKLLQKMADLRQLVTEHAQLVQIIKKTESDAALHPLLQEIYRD
T1 sequence (P04386 1-147 partner limits assumed): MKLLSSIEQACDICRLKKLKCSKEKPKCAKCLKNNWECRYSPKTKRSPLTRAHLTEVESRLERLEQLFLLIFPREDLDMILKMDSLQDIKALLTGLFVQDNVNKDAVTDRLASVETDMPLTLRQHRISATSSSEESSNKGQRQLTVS

Regarding `CCCCCCCCCCC[C@@H](C[C@@H]1OC(=O)[C@H]1CCCCCC)OC(=O)[C@H](CC(C)C)NC=O` [tetrahydrolipstatin], the “Effect on VLDL-induced ACO response” value in experiment [1] is on record as “inhibited this VLDL response”. Also, the “Effect on VLDL/LPL-mediated PPAR-alpha-LBD activation” value in experiment [2] was “inhibited LPL-mediated PPAR-alpha-LBD activation in a dose-dependent fashion”.
Regarding heparin, the “Effect on VLDL/LPL-mediated PPAR-alpha-LBD activation” value in experiment [2] is recorded as “None of these treatments had any effect”.
For `CC(C)(Oc1ccc(C(=O)c2ccc(Cl)cc2)cc1)C(=O)O` [Fenofibric acid], the figures for the “Decrease in LDL−/TNFα dependent VCAM-1 induction” value in the experiment on VCAM-1 promoter (cells co-transfected with PPAR-alpha vector) and with VCAM-1 promoter (cells co-transfected with control vector) were 60% and 40%, respectively.
For TNFα, the “Increase in VCAM-1 surface expression” value in the experiment on VCAM-1 is 5 fold.
On to ApoCIII: natural LPL inhibitor, for which the “Effect on LPL/LDL− dependent activation of PPAR-alpha” value in experiment [2] is on record as “inhibited; also recorded: abolished”.
For the molecule monoacylglycerols [MAG], the “PPAR-alpha-LBD activation by lipolytic products (significant activators of PPAR-alpha)” value in experiment [2] (lipid added alone) is listed as “activates PPAR-alpha-LBD”.
cyclochalasin: the “Effect on VLDL/LPL-mediated PPAR-alpha-LBD activation” value in experiment [2] is listed as “None of these treatments had any effect”.

B1: heat-inactivated LPL: heat-inactivated lipoprotein lipase (protein, UniProt P06858 28-475, looked up)
Lipoprotein lipase: ADQRRDFIDIESKFALRTPEDTAEDTCHLIPGVAESVATCHFNHSSKTFMVIHGWTVTGMYESWVPKLVAALYKREPDSNVIVVDWLSRAQEHYPVSAGYTKLVGQDVARFINWMEEEFNYPLDNVHLLGYSLGAHAAGIAGSLTNKKVNRITGLDPAGPNFEYAEAPSRLSPDDADFVDVLHTFTRGSPGRSIGIQKPVGHVDIYPNGGTFQPGCNIGEAIRVIAERGLGDVDQLVKCSHERSIHLFIDSLLNEENPSKAYRCSSKEAFEKGLCLSCRKNRCNNLGYEINKVRAKRSSKMYLKTRSQMPYKVFHYQVKIHFSGTESETHTNQAFEISLYGTVAESENIPFTLPEVSTNKTYSFLIYTEVDIGELLMLKLKWKSDSYFSWSDWWSSPGFAIQKIRVKAGETQKKVIFCSREKVSHLQKGKAPAVFVKCHDKSLNKKSG
modifications: heat-inactivated
As to B1, the “Effect on LPL/LDL− dependent activation of PPAR-alpha” value in experiment [2] is “abolished”. Further, the “PPAR-alpha-LBD activation after enzyme treatment of lipoproteins” value in experiment [2] (enzyme plus lipoprotein) was “failed to induce PPAR-alpha-LBD activation”.
